# Test results: PMC8201324, “Pyrazoles and Pyrazolines as Anti-Inflammatory Agents” (Molecules, 2021)
# Marks after values point to notes of the source that are not given here.
# Legend:
# [1] = Reducing activity of the stable radical DPPH; assay type: biochemical
# Description: The novel derivatives were studied for their interaction with the stable 2,2-diphenyl-1-picrylhydrazyl free radical (DPPH) at concentrations 50 µM, 100 µM, 200 µM and after 20 and 60 min (Table 3). This assay is based on the reduction of the DPPH by transferring an electron from the antioxidant. […] However, it seems that the interaction is dependent on the concentration and on the reaction time. From this point of view, it can be concluded that the acetyl pyrazolyl derivatives 2c and 2f seem to present the highest scavenging activities. An increase in concentration favors the activity. […] As for compounds 2a, 2b, 2c and 2f, activity seems to be time dependent at 200 µM. […] The presence of a chlorine group in 2e pyrazoline leads to an activity increase (compared to 2d) in concentration 200 µM. The acetyl derivative 2f presents better activity than 2b at 200 µM.
# (§1) A stock solution (1% DMSO in the appropriate buffer with the tested compound diluted under sonication) was prepared for the in vitro assays from which several dilutions were made with the appropriate buffer. The in vitro experiments were performed at least in triplicate, and the standard deviation of absorbance was less than 10% of the mean.
# A stock solution (10 mM) of the novel derivatives in DMSO was prepared and an equal volume of it was added to a solution of DPPH in absolute ethanol to reach final concentrations 50, 100 µM and 200 µM. The absorbance was recorded at 517 nm, after 20 and 60 min at room temperature (Table 3).
# [2] = system: carrageenin-induced rat paw edema; assay: Inhibition of the carrageenin-induced rat paw edema; assay type: in vivo, Fisher 344 rats; conditions: for CPE % (reduction in the rat paw edema induced by carrageenin): 0.0057 mmol/Kg body weight, intraperitoneally, 3.5 h after carrageenin; for anti-inflammatory activity in carrageenin-induced rat paw edema (in words): intraperitoneal administration
# From the text: The carrageenin-induced rat paw edema assay was used, as a model of acute inflammation. Inflammation induced by carrageenan is acute, non-immune, well-researched, and highly reproducible, and is described as a biphasic event. Cardinal signs of inflammation—edema, hyperalgesia, and erythema, are developed immediately following subcutaneous injection, resulting from the action of pro-inflammatory agents: bradykinin, histamine, tachykinins, complement reactive oxygen and nitrogen species. It is known that NSAIDs act during the second phase of prostaglandin release, presenting weak activity in the first phase of histamine and serotonin release.
# The animals (Fisher 344 rats), were housed under standard conditions, and received a diet of commercial food pellets and water ad libitum during the maintenance, but were entirely fasted during the experiment period. Both sexes were used, while pregnant females were excluded. Each group was composed of 6–15 animals. Our studies were in accordance with recognized guidelines on animal experimentation (guidelines for the care and use of laboratory animals published by the Greek Government 160/1991, based on EU regulations 86/609). Rats were kept in the Centre of the School of Veterinary Medicine (EL54 BIO42), Aristotle University of Thessaloniki, which is registered by the official state veterinary authorities (presidential degree 56/2013, in harmony with the European Directive 2010/63/EEC). The experimental protocols were approved by the Animal Ethics Committee of the Prefecture of Central Macedonia.
# Carrageenin in water as an intradermal injection of 0.1 mL 2% was used for the induction of the edema in the right hind paw of the rats, according to the previously reported method. Animals were divided in five-membered groups and the tested compounds were suspended in water (0.0057 mmol/kg body weight), with a few drops of Tween 80, ground in a mortar before administered intraperitoneally simultaneously. The rats were euthanized 3.5 h after carrageenin injection. Comparison of the change in paw weight with that in control animals (treated with water) was expressed as a percent inhibition of the oedema CPE% values using indomethacin (IMA) as a reference compound. Values CPE% are the mean from two different experiments with a standard error of the mean less than 10% (Table 5). Student’s T test was applied.
# [3] = Experimental determination of lipophilicity as RM values (RP-TLC); assay type: physicochemical; set-up: key: RM = log[(1/Rf) − 1] from RP-TLC Rf values; conditions: methanol/water 70/30 v/v, 24 °C, average of at least five measurements
# From the text: Lipophilicity is the key physicochemical parameter of a bioactive molecule, linking solubility, ligand-target binding interactions and membrane permeability with absorption, distribution, bioavailability, metabolism and elimination (ADME) and toxicological effects, crucial for its biological activity. The reverse phase thin layer chromatography (RPTLC) method was used for the experimental determination of the lipophilic character of the synthesized compounds as RM values (Table 2). Lipophilicity was also theoretically calculated as clog P values, using the CLOGP Program of Biobyte Corp. and as LPSP-lipophilicity values through Spartan v.5.1.3. (Wavefunction Inc., Irvine, CA, USA). According to the calculated clog P values, as well as LPSP, the most lipophilic compounds were the compounds 2c, 2d, 2e and 2g. This observation was supported by the RM values (with the exception of 2g).
# Lipophilicity as RM values was determined through reversed phase TLC (RP-TLC) on silica gel plates impregnated with 5% (v/v) liquid paraffin in light petroleum ether. Methanol/water mixture (70/30, v/v) was used a mobile phase. Closed chromatography tanks saturated with the mobile phase at 24 °C were used for the development of the plates while the spots were detected under UV light. For the determination of RM values, five individual measurements of Rf values were recorded, and the RM values were derived from the equation RM = log [(1/Rf) − 1] [42, 43] (Table 2).
# [4] = Inhibition of linoleic acid lipid peroxidation (AAPH); assay type: biochemical
# Description: For the lipid peroxidation study, 2,2′-azobis(2-amidinopropane) hydrochloride (AAPH) was used for the generation of peroxyl radicals. The generation of the conjugated diene hydroperoxide derived from the oxidation of sodium linoleate in an aqueous solution was recorded at 234 nm. The compounds presented high anti-lipid peroxidation activity (78–100%) (Table 4). Pyrazolines 2a and 2b present lower anti-lipid peroxidation activity (89% and 78% respectively).
# as §1
# AAPH was used as free radical initiator of alkylperoxyl radicals. The ability of the compounds to prevent the oxidation of linoleic acid sodium salt from alkylperoxyl radicals was recorded at 234 nm. Trolox was used as reference (93%) (Table 4).
Molecule,RA% 50 µM 20 min [1],RA% 50 µM 60 min [1],RA% 100 µM 20 min [1],RA% 100 µM 60 min [1],RA% 200 µM 20 min [1],RA% 200 µM 60 min [1],CPE % (reduction in the rat paw edema induced by carrageenin) [2],anti-inflammatory activity in carrageenin-induced rat paw edema (in words) [2],RM (±SD) [3],AAPH% 100 µM (anti-lipid peroxidation) [4]
1-(5-(4-((4-bromobenzyl)oxy)phenyl)-3-(thiophen-2-yl)-1H-pyrazol-1-yl)ethan-1-one [Compound 2c],17.1%,22.4%,41.9%,44.0%,49.4%,59.2%,38.0 * %,medium activity,0.68 ± 0.05,100%
"5-(4-((4-bromobenzyl)oxy)phenyl)-3-(4-chlorophenyl)-4,5-dihydro-1H-pyrazole [Compound 2e]",9.5%,13.0%,14.8%,17.8%,25.6%,30.1%,56.0 ** %,highest anti-inflammatory activity,0.87 ± 0.07,98%
"c1ccc(C2=NNC(c3cccc4ccccc34)C2)cc1 (centres unmarked) [Compound 2a, 5-(naphthalen-1-yl)-3-phenyl-4,5-dihydro-1H-pyrazole]",15.0%,20.0%,22.9%,32.0%,37.2%,49.3%,no,inactive,0.22 ± 0.2,89%
"Clc1ccc(C2=NNC(c3ccc4[nH]ccc4c3)C2)cc1 (centres unmarked) [Compound 2b, 5-(3-(4-chlorophenyl)-4,5-dihydro-1H-pyrazol-5-yl)-1H-indole]",19.3%,25.0%,26.1%,33.6%,34.9%,44.4%,27.0 * %,medium activity,0.23 ± 0.03,78%
"Brc1ccc(COc2ccc(C3CC(c4ccccc4)=NN3)cc2)cc1 (centres unmarked) [Compound 2d, 5-(4-((4-bromobenzyl)oxy)phenyl)-3-phenyl-4,5-dihydro-1H-pyrazole]",6.3%,9.5%,19.4%,37.4%,9.4%,14.9%,63.0 ** %,highest anti-inflammatory activity,0.72 ± 0.06,96%
"CC(=O)n1nc(-c2ccccc2)cc1-c1ccc2[nH]ccc2c1 [Compound 2f, 1-(5-(1H-indol-5-yl)-3-phenyl-1H-pyrazol-1-yl)ethan-1-one]",21.0%,24.7%,34.7%,38.8%,50.1%,59.5%,30.0 * %,medium activity,−0.07 ± 0.01,95%
"CC(=O)n1nc(-c2ccc(Cl)cc2)cc1-c1cccc2ccccc12 [Compound 2g, 1-(3-(4-chlorophenyl)-5-(naphthalen-1-yl)-1H-pyrazol-1-yl)ethan-1-one]",9.0%,12.7%,11.2%,13.6%,22.5%,27.7%,33.0 * %,medium activity,−0.59 ± 0.05,100%
"CC(=O)n1nc(-c2ccccc2)cc1-c1cccc(Oc2ccccc2)c1 [Compound 2h, 1-(5-(3-phenoxyphenyl)-3-phenyl-1H-pyrazol-1-yl)ethan-1-one]",6.7%,9.5%,7.8%,9.6%,17.2%,20.9%,16.0 * %,low activity,0.41 ± 0.02,97%
